According to patent US20090105270A1, “Kinase inhibition and anticancer therapy” (priority 2007, published 2009):

Tests used:
PDGFRα(h) = PDGFRα(h) (Homo sapiens, UniProt P16234); assay: Upstate kinase activity inhibition assay PDGFRα(h); settings: 40 min, read-out: percentage of enzyme activity that remains
EphA5(h) = target: T1, EphA5(h) (Homo sapiens, UniProt P54756); assay: Upstate kinase activity inhibition assay EphA5(h); type: biochemical; settings: 4 μM Compound E
T1 construct: purchased Upstate (KinaseProfiler service)

MuSK(h) = MuSK(h) (Homo sapiens, UniProt O15146); assay: Upstate kinase activity inhibition assay MuSK(h); settings: 40 min, read-out: percentage of enzyme activity that remains
CK2α2(h) = target: T2, CK2α2(h) (Homo sapiens, UniProt P19784); assay: Upstate kinase activity inhibition assay CK2α2(h); type: biochemical; settings: 40 min; read-out: percentage of enzyme activity that remains
T2 construct: purchased Upstate (KinaseProfiler service)

ARK5(h) = ARK5(h) (Homo sapiens, UniProt O60285); assay: Upstate kinase activity inhibition assay ARK5(h)
Rsk1(h) = target: T3, Rsk1(h) (Homo sapiens, UniProt Q15418); assay: Upstate kinase activity inhibition assay Rsk1(h); type: biochemical; settings: 40 min; read-out: percentage of enzyme activity that remains
T3 construct: purchased Upstate (KinaseProfiler service)

Ret(h) = target: T4, Ret(h) (Homo sapiens, UniProt P07949); assay: Upstate kinase activity inhibition assay Ret(h); type: biochemical; settings: 40 min; read-out: percentage of enzyme activity that remains
T4 construct: purchased Upstate (KinaseProfiler service)

PKBβ(h) = PKBβ(h) (Homo sapiens, UniProt P31751); assay: Upstate kinase activity inhibition assay PKBβ(h); settings: 40 min, read-out: percentage of enzyme activity that remains
Flt4(h) = Flt4(h) (Homo sapiens, UniProt P35916); assay: Upstate kinase activity inhibition assay Flt4(h); settings: 40 min, read-out: percentage of enzyme activity that remains
Fyn(h) = target: T5, Fyn(h) (Homo sapiens, UniProt P06241); assay: Upstate kinase activity inhibition assay Fyn(h); type: biochemical; settings: 40 min; read-out: percentage of enzyme activity that remains
T5 construct: purchased Upstate (KinaseProfiler service)

STK33(h) = STK33(h) (Homo sapiens, UniProt Q9BYT3); assay: Upstate kinase activity inhibition assay STK33(h); settings: 40 min, read-out: percentage of enzyme activity that remains
ITK(h) = ITK(h) (Homo sapiens, UniProt Q08881); assay: Upstate kinase activity inhibition assay ITK(h); settings: 4 μM Compound E
PKCβII(h) = target: T6, PKCβII(h) (Homo sapiens, UniProt P05771); assay: Upstate kinase activity inhibition assay PKCβII(h); type: biochemical; settings: 40 min; read-out: percentage of enzyme activity that remains
T6 construct: purchased Upstate (KinaseProfiler service)

JNK2α2(h) = JNK2α2(h) (Homo sapiens, UniProt P45984); assay: Upstate kinase activity inhibition assay JNK2α2(h)
TrkB(h) = TrkB(h) (Homo sapiens, UniProt Q16620); assay: Upstate kinase activity inhibition assay TrkB(h); settings: 40 min, read-out: percentage of enzyme activity that remains
IRAK4(h) = target: T7, IRAK4(h) (Homo sapiens, UniProt Q9NWZ3); assay: Upstate kinase activity inhibition assay IRAK4(h); type: biochemical; settings: 4 μM Compound E
T7 construct: purchased Upstate (KinaseProfiler service)

CDK3/cyclinE(h) = target: T8, CDK3/cyclinE(h) (Homo sapiens, UniProt Q00526); assay: Upstate kinase activity inhibition assay CDK3/cyclinE(h); type: biochemical; settings: 4 μM Compound E
T8 construct: purchased Upstate (KinaseProfiler service)

Lyn(h) = target: T9, Lyn(h) (Homo sapiens, UniProt P07948); assay: Upstate kinase activity inhibition assay Lyn(h); type: biochemical; settings: 40 min; read-out: percentage of enzyme activity that remains
T9 construct: purchased Upstate (KinaseProfiler service)

TSSK2(h) = target: T10, TSSK2(h) (Homo sapiens, UniProt Q96PF2); assay: Upstate kinase activity inhibition assay TSSK2(h); type: biochemical; settings: 40 min; read-out: percentage of enzyme activity that remains
T10 construct: purchased Upstate (KinaseProfiler service)

MKK7β(h) = MKK7β(h) (Homo sapiens, UniProt O14733); assay: Upstate kinase activity inhibition assay MKK7β(h)
ROCK-II(h) = ROCK-II(h) (Homo sapiens, UniProt O75116); assay: Upstate kinase activity inhibition assay ROCK-II(h); settings: 40 min, read-out: percentage of enzyme activity that remains
MELK(h) = MELK(h) (Homo sapiens, UniProt Q14680); assay: Upstate kinase activity inhibition assay MELK(h); settings: 40 min, read-out: percentage of enzyme activity that remains
MSSK1(h) = MSSK1(h) (Homo sapiens, UniProt Q9UPE1); assay: Upstate kinase activity inhibition assay MSSK1(h); settings: 40 min, read-out: percentage of enzyme activity that remains
SGK(h) = target: T11, SGK(h) (Homo sapiens, UniProt O00141, S422D); assay: Upstate kinase activity inhibition assay SGK(h); type: biochemical; settings: 40 min; read-out: percentage of enzyme activity that remains
T11 construct: purchased Upstate (KinaseProfiler service)

EphB3(h) = EphB3(h) (Homo sapiens, UniProt P54753); assay: Upstate kinase activity inhibition assay EphB3(h); settings: 40 min, read-out: percentage of enzyme activity that remains
eEF-2K(h) = target: T12, eEF-2K(h) (Homo sapiens, UniProt O00418); assay: Upstate kinase activity inhibition assay eEF-2K(h); type: biochemical; settings: 40 min; read-out: percentage of enzyme activity that remains
T12 construct: purchased Upstate (KinaseProfiler service)

EphA1(h) = EphA1(h) (Homo sapiens, UniProt P21709); assay: Upstate kinase activity inhibition assay EphA1(h); settings: 40 min, read-out: percentage of enzyme activity that remains
PDK1(h) = target: T13, PDK1(h) (Homo sapiens, UniProt O15530); assay: Upstate kinase activity inhibition assay PDK1(h); type: biochemical; settings: 40 min; read-out: percentage of enzyme activity that remains
T13 construct: purchased Upstate (KinaseProfiler service)

MRCKβ(h) = target: T14, MRCKβ(h) (Homo sapiens, UniProt Q9Y5S2); assay: Upstate kinase activity inhibition assay MRCKβ(h); type: biochemical; settings: 40 min; read-out: percentage of enzyme activity that remains
T14 construct: purchased Upstate (KinaseProfiler service)

PRAK(h) = PRAK(h) (Homo sapiens, UniProt Q8IW41); assay: Upstate kinase activity inhibition assay PRAK(h); settings: 40 min, read-out: percentage of enzyme activity that remains
MAPK2(h) = target: T15, MAPK2(h) (Homo sapiens, UniProt P28482); assay: Upstate kinase activity inhibition assay MAPK2(h); type: biochemical; settings: 40 min; read-out: percentage of enzyme activity that remains
T15 construct: purchased Upstate (KinaseProfiler service)

Sequence of PRAK(h) (Q8IW41 whole entry): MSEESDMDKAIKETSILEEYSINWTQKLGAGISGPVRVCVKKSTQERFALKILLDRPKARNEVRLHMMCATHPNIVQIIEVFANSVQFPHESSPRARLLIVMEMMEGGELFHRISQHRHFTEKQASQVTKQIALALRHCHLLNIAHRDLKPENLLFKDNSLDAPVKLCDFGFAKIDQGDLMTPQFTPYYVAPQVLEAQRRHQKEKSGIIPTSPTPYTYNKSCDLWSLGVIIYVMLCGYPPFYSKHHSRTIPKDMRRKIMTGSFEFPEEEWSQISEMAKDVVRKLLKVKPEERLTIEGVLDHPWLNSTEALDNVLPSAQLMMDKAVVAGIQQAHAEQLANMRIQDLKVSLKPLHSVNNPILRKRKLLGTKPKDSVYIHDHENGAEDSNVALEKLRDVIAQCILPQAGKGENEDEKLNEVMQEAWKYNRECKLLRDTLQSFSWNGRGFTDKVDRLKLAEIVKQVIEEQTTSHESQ
Sequence of ARK5(h) (O60285 whole entry): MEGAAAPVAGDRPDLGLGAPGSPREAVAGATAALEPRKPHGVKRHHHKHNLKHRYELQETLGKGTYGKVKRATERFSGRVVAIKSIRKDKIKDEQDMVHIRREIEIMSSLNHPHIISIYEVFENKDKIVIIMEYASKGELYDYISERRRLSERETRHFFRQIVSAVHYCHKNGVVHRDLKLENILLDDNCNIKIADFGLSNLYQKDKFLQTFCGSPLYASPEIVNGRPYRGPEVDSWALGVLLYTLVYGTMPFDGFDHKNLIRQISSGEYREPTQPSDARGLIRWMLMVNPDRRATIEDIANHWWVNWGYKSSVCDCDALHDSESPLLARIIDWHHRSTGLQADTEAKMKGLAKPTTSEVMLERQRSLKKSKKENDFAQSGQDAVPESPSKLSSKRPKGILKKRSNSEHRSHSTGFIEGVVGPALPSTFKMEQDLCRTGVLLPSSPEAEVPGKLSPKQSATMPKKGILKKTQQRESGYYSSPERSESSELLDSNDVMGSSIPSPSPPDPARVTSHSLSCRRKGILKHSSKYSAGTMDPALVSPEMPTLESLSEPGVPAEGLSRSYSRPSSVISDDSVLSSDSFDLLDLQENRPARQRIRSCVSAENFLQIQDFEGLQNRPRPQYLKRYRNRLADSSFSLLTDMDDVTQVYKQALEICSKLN
T9 sequence (P07948 whole entry): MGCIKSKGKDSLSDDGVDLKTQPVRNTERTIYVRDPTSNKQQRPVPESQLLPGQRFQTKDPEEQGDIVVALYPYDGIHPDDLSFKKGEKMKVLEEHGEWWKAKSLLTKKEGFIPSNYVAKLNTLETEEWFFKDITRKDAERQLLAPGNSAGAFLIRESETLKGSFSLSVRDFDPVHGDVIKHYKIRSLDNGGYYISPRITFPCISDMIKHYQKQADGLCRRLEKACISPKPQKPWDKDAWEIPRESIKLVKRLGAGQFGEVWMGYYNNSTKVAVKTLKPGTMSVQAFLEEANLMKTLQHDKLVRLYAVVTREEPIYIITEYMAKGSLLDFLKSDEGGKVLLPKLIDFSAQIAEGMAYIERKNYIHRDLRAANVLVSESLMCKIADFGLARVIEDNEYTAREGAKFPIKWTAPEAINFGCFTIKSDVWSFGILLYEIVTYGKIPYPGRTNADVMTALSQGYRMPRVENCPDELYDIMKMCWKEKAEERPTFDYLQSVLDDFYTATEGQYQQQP
Sequence of MELK(h) (Q14680 whole entry): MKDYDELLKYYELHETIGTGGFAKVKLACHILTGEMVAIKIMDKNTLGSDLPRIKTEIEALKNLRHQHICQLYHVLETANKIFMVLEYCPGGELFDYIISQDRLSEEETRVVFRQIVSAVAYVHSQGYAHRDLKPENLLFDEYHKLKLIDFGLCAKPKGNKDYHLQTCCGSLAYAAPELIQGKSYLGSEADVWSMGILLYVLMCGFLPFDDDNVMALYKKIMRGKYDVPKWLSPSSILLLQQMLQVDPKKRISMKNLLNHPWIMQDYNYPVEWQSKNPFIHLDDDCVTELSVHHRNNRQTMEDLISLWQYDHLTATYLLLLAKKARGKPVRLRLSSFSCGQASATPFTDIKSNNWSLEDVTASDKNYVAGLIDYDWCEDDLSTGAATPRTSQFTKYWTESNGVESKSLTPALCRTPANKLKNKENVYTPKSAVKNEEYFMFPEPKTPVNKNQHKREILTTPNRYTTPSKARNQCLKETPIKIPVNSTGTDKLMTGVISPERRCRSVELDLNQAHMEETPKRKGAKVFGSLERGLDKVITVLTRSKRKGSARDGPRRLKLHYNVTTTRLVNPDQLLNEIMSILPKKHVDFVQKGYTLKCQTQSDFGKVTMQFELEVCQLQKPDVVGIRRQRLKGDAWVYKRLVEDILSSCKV
T13 sequence (O15530 whole entry): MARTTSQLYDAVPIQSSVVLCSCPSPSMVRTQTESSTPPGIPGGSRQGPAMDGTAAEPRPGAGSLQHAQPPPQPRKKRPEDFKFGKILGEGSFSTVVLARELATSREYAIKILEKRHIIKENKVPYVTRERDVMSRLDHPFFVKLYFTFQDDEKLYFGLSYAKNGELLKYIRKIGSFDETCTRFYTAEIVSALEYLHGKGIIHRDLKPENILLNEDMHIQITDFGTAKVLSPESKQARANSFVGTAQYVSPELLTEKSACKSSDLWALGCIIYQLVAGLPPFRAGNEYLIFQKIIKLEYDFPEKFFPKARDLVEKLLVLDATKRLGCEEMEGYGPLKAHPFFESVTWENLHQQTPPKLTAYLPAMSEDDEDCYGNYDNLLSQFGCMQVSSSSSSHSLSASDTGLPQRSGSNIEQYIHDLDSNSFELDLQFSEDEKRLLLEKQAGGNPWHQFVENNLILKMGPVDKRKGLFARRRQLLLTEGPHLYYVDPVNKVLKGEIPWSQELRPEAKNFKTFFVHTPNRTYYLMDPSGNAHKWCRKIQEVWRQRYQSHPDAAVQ
Sequence of JNK2α2(h) (P45984 whole entry): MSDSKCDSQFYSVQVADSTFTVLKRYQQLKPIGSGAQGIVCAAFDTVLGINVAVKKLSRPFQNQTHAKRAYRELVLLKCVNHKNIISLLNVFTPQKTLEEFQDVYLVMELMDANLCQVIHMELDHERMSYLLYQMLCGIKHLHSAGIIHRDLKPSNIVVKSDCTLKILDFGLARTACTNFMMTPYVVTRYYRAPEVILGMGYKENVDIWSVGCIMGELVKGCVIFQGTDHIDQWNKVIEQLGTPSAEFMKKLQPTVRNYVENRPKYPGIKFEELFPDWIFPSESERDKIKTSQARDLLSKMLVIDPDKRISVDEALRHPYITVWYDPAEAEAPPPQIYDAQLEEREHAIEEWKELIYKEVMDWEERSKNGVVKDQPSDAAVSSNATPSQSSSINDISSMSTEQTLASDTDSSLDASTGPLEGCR
Sequence of MuSK(h) (O15146 24-869): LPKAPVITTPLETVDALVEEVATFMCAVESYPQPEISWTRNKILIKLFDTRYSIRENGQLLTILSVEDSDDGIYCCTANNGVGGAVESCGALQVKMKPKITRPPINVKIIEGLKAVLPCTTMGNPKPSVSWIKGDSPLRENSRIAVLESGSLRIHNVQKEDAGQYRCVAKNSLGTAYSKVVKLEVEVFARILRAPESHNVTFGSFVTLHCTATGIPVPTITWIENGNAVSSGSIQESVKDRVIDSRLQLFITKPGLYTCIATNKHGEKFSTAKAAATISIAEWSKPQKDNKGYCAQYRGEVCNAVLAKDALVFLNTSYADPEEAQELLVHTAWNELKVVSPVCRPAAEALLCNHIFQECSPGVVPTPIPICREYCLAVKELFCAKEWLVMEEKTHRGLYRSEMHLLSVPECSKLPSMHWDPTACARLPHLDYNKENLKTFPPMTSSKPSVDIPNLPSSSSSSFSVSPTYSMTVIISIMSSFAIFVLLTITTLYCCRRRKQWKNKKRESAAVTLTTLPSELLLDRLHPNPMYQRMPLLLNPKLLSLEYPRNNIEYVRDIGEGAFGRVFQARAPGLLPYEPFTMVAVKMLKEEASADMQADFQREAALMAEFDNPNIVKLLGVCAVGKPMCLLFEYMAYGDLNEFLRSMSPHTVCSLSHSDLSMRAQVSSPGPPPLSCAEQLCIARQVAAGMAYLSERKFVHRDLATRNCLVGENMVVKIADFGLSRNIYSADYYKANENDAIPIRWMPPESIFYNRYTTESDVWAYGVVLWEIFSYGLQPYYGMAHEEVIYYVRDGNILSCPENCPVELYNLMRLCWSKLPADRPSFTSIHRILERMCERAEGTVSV
Sequence of PKBβ(h) (P31751 whole entry): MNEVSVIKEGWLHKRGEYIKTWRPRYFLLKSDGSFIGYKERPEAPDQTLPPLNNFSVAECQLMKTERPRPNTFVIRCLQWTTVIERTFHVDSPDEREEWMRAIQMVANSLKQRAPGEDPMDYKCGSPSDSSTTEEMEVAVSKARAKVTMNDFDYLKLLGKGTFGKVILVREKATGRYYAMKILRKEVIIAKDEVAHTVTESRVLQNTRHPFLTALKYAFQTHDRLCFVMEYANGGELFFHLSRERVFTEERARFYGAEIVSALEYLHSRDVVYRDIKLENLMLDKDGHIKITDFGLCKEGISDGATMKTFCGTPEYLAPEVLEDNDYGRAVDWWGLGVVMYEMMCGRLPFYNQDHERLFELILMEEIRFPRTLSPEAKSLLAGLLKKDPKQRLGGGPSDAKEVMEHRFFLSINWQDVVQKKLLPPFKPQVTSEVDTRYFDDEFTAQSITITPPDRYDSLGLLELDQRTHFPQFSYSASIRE
Sequence of MKK7β(h) (O14733 whole entry): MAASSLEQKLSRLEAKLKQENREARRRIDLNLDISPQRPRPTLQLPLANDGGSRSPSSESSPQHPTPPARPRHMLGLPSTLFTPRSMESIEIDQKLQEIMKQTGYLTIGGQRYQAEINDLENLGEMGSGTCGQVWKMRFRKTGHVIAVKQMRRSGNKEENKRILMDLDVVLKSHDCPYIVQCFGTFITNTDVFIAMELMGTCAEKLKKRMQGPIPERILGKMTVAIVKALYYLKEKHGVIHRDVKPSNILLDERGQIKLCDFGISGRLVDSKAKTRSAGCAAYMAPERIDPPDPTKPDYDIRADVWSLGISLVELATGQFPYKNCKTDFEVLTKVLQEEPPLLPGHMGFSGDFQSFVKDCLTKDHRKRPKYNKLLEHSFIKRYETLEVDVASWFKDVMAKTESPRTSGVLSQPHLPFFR

Cc1cc(Nc2cc(N3CCN(C)CC3)nc(Sc3ccc(NC(=O)C4CC4)cc3)n2)n[nH]1 [Compound E, Cyclopropane carboxylic acid {4-[4-(4-methyl-piperazin-1-yl)-6-(5-methyl-2H-pyrazol-3-ylamino)-pyrimidin-2-ylsulphanyl]-phenyl}-amide]
remaining activity at 0.2 µM (PDGFRα(h)): 87%
percentage of enzyme activity that remains (EphA5(h)): 57%
remaining activity at 0.2 µM (MuSK(h)): 89%
remaining activity at 4 µM (MuSK(h)): 8%
remaining activity at 0.2 µM (CK2α2(h)): 100%
percentage of enzyme activity that remains (ARK5(h); 0.2 μM Compound E): 53%
percentage of enzyme activity that remains (ARK5(h); 4 μM Compound E): 11%
remaining activity at 4 µM (Rsk1(h)): 89%
remaining activity at 0.2 µM (Ret(h)): 34%
remaining activity at 4 µM (Ret(h)): 2%
remaining activity at 0.2 µM (PKBβ(h)): 105%
remaining activity at 4 µM (PKBβ(h)): 85%
remaining activity at 4 µM (Flt4(h)): 10%
remaining activity at 4 µM (Fyn(h)): 4%
remaining activity at 0.2 µM (STK33(h)): 112%
remaining activity at 4 µM (STK33(h)): 110%
percentage of enzyme activity that remains (ITK(h)): 12%
remaining activity at 0.2 µM (PKCβII(h)): 99%
remaining activity at 4 µM (PKCβII(h)): 94%
percentage of enzyme activity that remains (JNK2α2(h); 0.2 μM Compound E): 107%
percentage of enzyme activity that remains (JNK2α2(h); 4 μM Compound E): 105%
remaining activity at 0.2 µM (TrkB(h)): 71%
remaining activity at 4 µM (TrkB(h)): 1%
percentage of enzyme activity that remains (IRAK4(h)): 90%
percentage of enzyme activity that remains (CDK3/cyclinE(h)): 97%
remaining activity at 0.2 µM (Lyn(h)): 45%
remaining activity at 4 µM (Lyn(h)): 3%
remaining activity at 0.2 µM (TSSK2(h)): 0%
remaining activity at 4 µM (TSSK2(h)): 0%
percentage of enzyme activity that remains (MKK7β(h); 0.2 μM Compound E): 91%
percentage of enzyme activity that remains (MKK7β(h); 4 μM Compound E): 97%
remaining activity at 0.2 µM (ROCK-II(h)): 93%
remaining activity at 4 µM (ROCK-II(h)): 106%
remaining activity at 0.2 µM (MELK(h)): 56%
remaining activity at 4 µM (MELK(h)): 13%
remaining activity at 0.2 µM (MSSK1(h)): 110%
remaining activity at 4 µM (MSSK1(h)): 108%
remaining activity at 0.2 µM (SGK(h)): 113%
remaining activity at 4 µM (SGK(h)): 109%
remaining activity at 0.2 µM (EphB3(h)): 99%
remaining activity at 4 µM (EphB3(h)): 89%
remaining activity at 0.2 µM (eEF-2K(h)): 91%
remaining activity at 4 µM (eEF-2K(h)): 82%
remaining activity at 0.2 µM (EphA1(h)): 93%
remaining activity at 4 µM (EphA1(h)): 27%
remaining activity at 0.2 µM (PDK1(h)): 97%
remaining activity at 4 µM (PDK1(h)): 86%
remaining activity at 4 µM (MRCKβ(h)): 100%
remaining activity at 0.2 µM (PRAK(h)): 114%
remaining activity at 4 µM (PRAK(h)): 109%
remaining activity at 0.2 µM (MAPK2(h)): 92%
